Measurements published in patent US20090023704A1, “Novel Compounds 737” (ASTRAZENECA AB, priority 2007, published 2009).

The compounds below were run against T1, GABAB receptor (GABABR1a/GABABR2 heterodimer) (Homo sapiens, UniProt O75899+Q9UBS5) (assay: [35S]-GTPγS binding assay, potency of PAM (GABA dose-response curves with and without test compound)). Settings: potency of the positive allosteric modulator; GABA dose-response in presence of test compound.
T1 construct: expressed in transfected cells
Assay type: biochemical
In short: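 Membranes from human GABABR1a/GABABR2-expressing cell lines, one with a GABABR1a-Gαqi5mut fusion, were incubated at 30 °C for 45 min, pH 7.4, with 10 μM GDP and 0.53 nM [35S]-GTPγS. GABA (0.1 nM–1 mM) was added with or without PAM, and EC50 was obtained by 4-parameter logistic fit after filtration and scintillation counting.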

T1 sequence (Q9UBS5 15-961 limits assumed): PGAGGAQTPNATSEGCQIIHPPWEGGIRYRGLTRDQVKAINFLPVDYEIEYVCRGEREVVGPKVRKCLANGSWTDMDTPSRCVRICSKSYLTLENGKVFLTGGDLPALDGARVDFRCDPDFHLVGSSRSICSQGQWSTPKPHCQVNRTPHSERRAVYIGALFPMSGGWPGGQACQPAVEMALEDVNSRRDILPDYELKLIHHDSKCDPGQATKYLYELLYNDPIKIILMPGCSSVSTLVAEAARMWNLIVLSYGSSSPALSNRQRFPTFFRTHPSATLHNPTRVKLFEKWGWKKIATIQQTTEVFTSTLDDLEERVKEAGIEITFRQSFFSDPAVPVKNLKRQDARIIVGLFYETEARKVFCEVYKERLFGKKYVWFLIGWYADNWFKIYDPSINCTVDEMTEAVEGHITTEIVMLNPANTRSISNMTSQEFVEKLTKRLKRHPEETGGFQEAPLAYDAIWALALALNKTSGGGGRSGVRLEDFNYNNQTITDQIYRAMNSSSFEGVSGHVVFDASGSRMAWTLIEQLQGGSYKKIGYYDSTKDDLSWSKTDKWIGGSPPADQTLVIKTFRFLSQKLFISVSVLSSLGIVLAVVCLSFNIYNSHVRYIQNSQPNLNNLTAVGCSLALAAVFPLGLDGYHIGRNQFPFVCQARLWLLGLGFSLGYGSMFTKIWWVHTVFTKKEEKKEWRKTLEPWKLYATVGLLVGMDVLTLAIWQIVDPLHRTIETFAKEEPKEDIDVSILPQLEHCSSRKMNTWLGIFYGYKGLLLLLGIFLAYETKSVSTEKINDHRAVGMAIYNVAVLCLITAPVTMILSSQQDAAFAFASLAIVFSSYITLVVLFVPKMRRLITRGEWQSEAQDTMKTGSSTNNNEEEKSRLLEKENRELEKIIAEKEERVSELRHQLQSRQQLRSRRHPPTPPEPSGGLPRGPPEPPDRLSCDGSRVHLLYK
T1 sequence (O75899 42-941): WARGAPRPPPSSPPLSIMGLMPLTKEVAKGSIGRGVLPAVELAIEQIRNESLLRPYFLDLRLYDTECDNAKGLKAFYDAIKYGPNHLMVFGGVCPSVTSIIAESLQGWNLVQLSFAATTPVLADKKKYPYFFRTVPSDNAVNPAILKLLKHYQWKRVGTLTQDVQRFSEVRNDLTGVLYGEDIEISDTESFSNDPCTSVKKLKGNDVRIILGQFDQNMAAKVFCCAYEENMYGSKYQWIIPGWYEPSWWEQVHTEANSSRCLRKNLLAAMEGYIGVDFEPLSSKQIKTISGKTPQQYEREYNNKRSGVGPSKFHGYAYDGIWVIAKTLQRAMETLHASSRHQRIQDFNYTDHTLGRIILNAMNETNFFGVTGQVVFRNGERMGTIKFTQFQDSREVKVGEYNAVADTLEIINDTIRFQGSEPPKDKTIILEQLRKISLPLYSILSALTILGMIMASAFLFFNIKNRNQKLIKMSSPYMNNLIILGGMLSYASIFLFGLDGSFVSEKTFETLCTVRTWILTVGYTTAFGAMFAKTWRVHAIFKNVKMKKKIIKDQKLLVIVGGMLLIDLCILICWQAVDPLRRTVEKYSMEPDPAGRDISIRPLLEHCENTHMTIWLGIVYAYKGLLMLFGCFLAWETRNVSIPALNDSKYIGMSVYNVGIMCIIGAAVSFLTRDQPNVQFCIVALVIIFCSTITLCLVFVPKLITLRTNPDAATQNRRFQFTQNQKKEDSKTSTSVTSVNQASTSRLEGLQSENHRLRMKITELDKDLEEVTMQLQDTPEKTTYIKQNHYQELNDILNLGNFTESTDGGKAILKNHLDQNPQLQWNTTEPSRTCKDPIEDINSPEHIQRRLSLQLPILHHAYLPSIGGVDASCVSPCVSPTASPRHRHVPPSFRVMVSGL

Row | EC50 [µM] | SMILES
1 | 13.4 | CCc1nc2c(c(=O)n(Cc3ccc(Cl)cc3)c(=O)n2CCCn2ccnc2)n1C [Example 49, 1-(4-Chlorobenzyl)-8-ethyl-3-[3-(1H-imidazol-1-yl)propyl]-7-methyl-3,7-dihydro-1H-purine-2,6-dione]
2 | 10 | CCc1nc2c(c(=O)n(Cc3ccc(Cl)cc3)c(=O)n2CC(=O)N2CCC(F)(F)C2)n1C [Example 50, 1-(4-Chlorobenzyl)-3-[2-(3,3-difluoropyrrolidin-1-yl)-2-oxoethyl]-8-ethyl-7-methyl-3,7-dihydro-1H-purine-2,6-dione]
3 | 1.7 | CCc1nc2c(c(=O)n(Cc3ccc(Cl)cc3)c(=O)n2CCn2cccc2)n1C [Example 37, 1-(4-chlorobenzyl)-8-ethyl-7-methyl-3-[2-(1H-pyrrol-1-yl)ethyl]-3,7-dihydro-1H-purine-2,6-dione]
